Measured values reported in ChEMBL document CHEMBL1201862, “PubChem BioAssay data set” (2004).
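Dose response: 5 concentrations. Exposure: 48 h. Format: 96-well plates. Endpoint: linear interpolation; highest concentration if not reached. Abbreviation: GI50, concentration required for 50% inhibition of growth.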 The source made the active and inactive calls. No stated cut-off is given here; in the data, active = GI50 up to about 1.1 µM and inactive = higher.

What was measured:
Assay in all cases: NCI-60 cell line screen, 48 h
A549 = test system: A549
BT-549 = test system: BT-549
CAKI-1 = test system: CAKI-1
CCRF-CEM = test system: CCRF-CEM
COLO 205 = test system: COLO 205
HL-60 = test system: HL-60
HOP-92 = test system: HOP-92
Hs-578T = test system: Hs-578T
K562 = test system: K562
NCI-H23 = test system: NCI-H23
NCI-H522 = test system: NCI-H522
OVCAR-3 = test system: OVCAR-3
OVCAR-5 = test system: OVCAR-5
OVCAR-8 = test system: OVCAR-8
RPMI-8226 = test system: RPMI-8226
RXF 393 = test system: RXF 393
SK-MEL-2 = test system: SK-MEL-2
SNB-75 = test system: SNB-75
UACC-257 = test system: UACC-257
UO-31 = test system: UO-31

Compound | GI50 (A549) | GI50 (BT-549) | GI50 (CAKI-1) | GI50 (CCRF-CEM) | GI50 (COLO 205) | GI50 (HL-60) | GI50 (HOP-92) | GI50 (Hs-578T) | GI50 (K562) | GI50 (NCI-H23) | GI50 (NCI-H522) | GI50 (OVCAR-3) | GI50 (OVCAR-5) | GI50 (OVCAR-8) | GI50 (RPMI-8226) | GI50 (RXF 393) | GI50 (SK-MEL-2) | GI50 (SNB-75) | GI50 (UACC-257) | GI50 (UO-31)
O=C1c2cccnc2-c2nccc3c2c1nc1cc(Br)ccc13 | 122 nM (active) | 250 nM (active) | 218 nM (active) | 98.9 nM (active) | 798 nM (active) | 40.5 nM (active) | 438 nM (active) | 204 nM (active) | 33 nM (active) | 95.5 nM (active) | 115 nM (active) | 124 nM (active) | 240 nM (active) | 65.9 nM (active) | 74.8 nM (active) | 94.6 nM (active) | 165 nM (active) | 243 nM (active) | 226 nM (active) | 221 nM (active)
O=C1C(CO)=C(CO)C(=O)c2c(O)ccc(O)c21 | 1640 nM (inactive) | 204 nM (active) | 387 nM (active) | 57.5 nM (active) | 40.8 nM (active) | 43 nM (active) | 261 nM (active) | 1450 nM (inactive) | 87.7 nM (active) | 389 nM (active) | 89.7 nM (active) | 655 nM (active) | 2080 nM (inactive) | 942 nM (active) | 117 nM (active) | 390 nM (active) | 1050 nM (active) | 388 nM (active) | 349 nM (active) | 1000 nM (active)
CN(C)c1ccc(/C=C2\C[N+](C)(C)C/C(=C\c3ccc(N(C)C)cc3)C2=O)cc1 | 20700 nM (inactive) | 10500 nM (inactive) | > 100000 nM (inactive) | 9530 nM (inactive) | 2610 nM (inactive) | 2470 nM (inactive) | 19400 nM (inactive) | 50000 nM (inactive) | 7980 nM (inactive) | 17700 nM (inactive) | 9660 nM (inactive) | 5900 nM (inactive) | 38900 nM (inactive) | 23900 nM (inactive) | 3470 nM (inactive) | > 48200 nM (inactive) | 14900 nM (inactive) | 17100 nM (inactive) | 12100 nM (inactive) | > 100000 nM (inactive)
COC(=O)CSc1cc(Cl)c(C)cc1S(=O)(=O)Nc1n[nH]c(N)n1 | > 10000 nM (inactive) | > 10000 nM (inactive) | > 10000 nM (inactive) | > 10000 nM (inactive) | > 10000 nM (inactive) | > 10000 nM (inactive) | > 10000 nM (inactive) | > 10000 nM (inactive) | > 10000 nM (inactive) | > 10000 nM (inactive) | > 10000 nM (inactive) | > 10000 nM (inactive) | > 10000 nM (inactive) | > 10000 nM (inactive) | > 10000 nM (inactive) | > 10000 nM (inactive) | > 10000 nM (inactive) | > 10000 nM (inactive) | > 10000 nM (inactive) | > 10000 nM (inactive)
